Measured values from ChEMBL document CHEMBL1201862, “PubChem BioAssay data set” (2004).
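Step 1: Grow cells in 96-well plates. Step 2: Expose to compound for 48 hours at 5 concentrations. Step 3: Interpolate endpoints linearly; if unreached, use highest concentration. Here, GI50 denotes the concentration required for 50% inhibition of growth.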 Activity calls are given as the source filed them. Rule as the data show it: active = GI50 up to about 1.1 µM and inactive = higher.

Legend:
Assay in all cases: NCI tumour cell line growth inhibition, 48 h
ACHN = test system: ACHN
BT-549 = test system: BT-549
CCRF-CEM = test system: CCRF-CEM
HCC 2998 = test system: HCC 2998
IGROV-1 = test system: IGROV-1
KM12 = test system: KM12
LOX IMVI = test system: LOX IMVI
M14 = test system: M14
MCF7 = test system: MCF7
MDA-MB-435 = test system: MDA-MB-435
MDA-N = test system: MDA-N
Malme-3M = test system: Malme-3M
NCI-H460 = test system: NCI-H460
NCI-H522 = test system: NCI-H522
NCI/ADR-RES = test system: NCI/ADR-RES
OVCAR-8 = test system: OVCAR-8
PC-3 = test system: PC-3
UACC-257 = test system: UACC-257
UACC-62 = test system: UACC-62
RXF 393 = test system: RXF 393

| SMILES | GI50 (ACHN) | GI50 (BT-549) | GI50 (CCRF-CEM) | GI50 (HCC 2998) | GI50 (IGROV-1) | GI50 (KM12) | GI50 (LOX IMVI) | GI50 (M14) | GI50 (MCF7) | GI50 (MDA-MB-435) | GI50 (MDA-N) | GI50 (Malme-3M) | GI50 (NCI-H460) | GI50 (NCI-H522) | GI50 (NCI/ADR-RES) | GI50 (OVCAR-8) | GI50 (PC-3) | GI50 (UACC-257) | GI50 (UACC-62) | GI50 (RXF 393) |
| --- | --- | --- | --- | --- | --- | --- | --- | --- | --- | --- | --- | --- | --- | --- | --- | --- | --- | --- | --- | --- |
| CC(=O)Nn1cnc(C(=N)C#N)c1N | > 100 µM (inactive) | > 100 µM (inactive) | > 100 µM (inactive) | > 100 µM (inactive) | > 100 µM (inactive) | > 100 µM (inactive) | > 100 µM (inactive) | > 100 µM (inactive) | > 100 µM (inactive) | > 100 µM (inactive) | > 100 µM (inactive) | > 100 µM (inactive) | > 100 µM (inactive) | > 100 µM (inactive) | > 100 µM (inactive) | > 100 µM (inactive) | > 100 µM (inactive) | > 100 µM (inactive) | > 100 µM (inactive) | – |
| COc1ccc(C(OCC2OC(n3ccc(NC(=O)c4ccccc4)nc3=O)CC2OP2(=S)SCCS2)(c2ccccc2)c2ccc(OC)cc2)cc1 (stereo not drawn) | 18.6 µM (inactive) | 25.9 µM (inactive) | – | – | 33.5 µM (inactive) | – | 14.9 µM (inactive) | 24.9 µM (inactive) | 37.1 µM (inactive) | 30.1 µM (inactive) | > 10 µM (inactive) | 25.4 µM (inactive) | 33.6 µM (inactive) | 22.1 µM (inactive) | > 10 µM (inactive) | 27.2 µM (inactive) | 17.8 µM (inactive) | 30.1 µM (inactive) | 16.7 µM (inactive) | 33.2 µM (inactive) |
| COc1cc(Cc2nccc3cc(OC)c(OC)cc23)c(/N=N/N(C)C)cc1OC | 15.1 µM (inactive) | 18.2 µM (inactive) | 3.18 µM (inactive) | 14.6 µM (inactive) | 13.5 µM (inactive) | 18.7 µM (inactive) | – | 17.5 µM (inactive) | 14.6 µM (inactive) | 18.5 µM (inactive) | 19 µM (inactive) | 22.3 µM (inactive) | 7.23 µM (inactive) | – | 23.1 µM (inactive) | 15.7 µM (inactive) | 10.7 µM (inactive) | 20.3 µM (inactive) | 13.2 µM (inactive) | 2.99 µM (inactive) |
| S=C1CC(c2ccccc2)Sc2cc(Cl)ccc2N1 (stereo not drawn) | 9.46 µM (inactive) | 8.79 µM (inactive) | 1.36 µM (inactive) | – | 16 µM (inactive) | 3.97 µM (inactive) | 4.09 µM (inactive) | 3.12 µM (inactive) | 4.34 µM (inactive) | 0.723 µM (active) | 0.661 µM (active) | 6.28 µM (inactive) | 6.59 µM (inactive) | 2.21 µM (inactive) | 3.52 µM (inactive) | 13.2 µM (inactive) | 1.87 µM (inactive) | 6.04 µM (inactive) | 5.56 µM (inactive) | 6.55 µM (inactive) |
| COc1ccc(/C(=N/OCCCC(=O)O)c2cccs2)cc1 | > 100 µM (inactive) | > 100 µM (inactive) | > 100 µM (inactive) | > 100 µM (inactive) | – | > 100 µM (inactive) | > 100 µM (inactive) | – | > 100 µM (inactive) | > 100 µM (inactive) | > 100 µM (inactive) | > 100 µM (inactive) | > 100 µM (inactive) | – | > 100 µM (inactive) | > 100 µM (inactive) | > 100 µM (inactive) | > 100 µM (inactive) | > 100 µM (inactive) | > 100 µM (inactive) |
| C/C=C1/CN2CCC34C(=C(C(=O)OC)C1CC23)Nc1ccc(O)cc14 (stereo not drawn) | > 100 µM (inactive) | > 100 µM (inactive) | > 100 µM (inactive) | > 100 µM (inactive) | > 100 µM (inactive) | > 100 µM (inactive) | > 100 µM (inactive) | > 100 µM (inactive) | > 100 µM (inactive) | > 100 µM (inactive) | > 100 µM (inactive) | > 100 µM (inactive) | > 100 µM (inactive) | > 100 µM (inactive) | > 100 µM (inactive) | > 100 µM (inactive) | > 100 µM (inactive) | > 100 µM (inactive) | > 100 µM (inactive) | – |
| CCOc1cc(NC(C)=O)ccc1C(=O)NN1C(=O)/C(=C/c2ccc(Cl)cc2)N=C1c1ccccc1 | 51.1 µM (inactive) | 47.4 µM (inactive) | 25 µM (inactive) | – | 18.1 µM (inactive) | 34.3 µM (inactive) | 62.7 µM (inactive) | 48.5 µM (inactive) | 4.67 µM (inactive) | 35.6 µM (inactive) | 34.3 µM (inactive) | – | – | – | 42 µM (inactive) | 34 µM (inactive) | 43.5 µM (inactive) | 43.9 µM (inactive) | – | 33 µM (inactive) |
| O=C(O)c1cc2ccccc2c(Cc2c(O)c(C(=O)O)cc3ccccc23)c1O [PAMOIC ACID] | > 100 µM (inactive) | > 100 µM (inactive) | > 100 µM (inactive) | > 100 µM (inactive) | > 100 µM (inactive) | > 100 µM (inactive) | > 100 µM (inactive) | > 100 µM (inactive) | – | > 100 µM (inactive) | > 100 µM (inactive) | > 100 µM (inactive) | > 100 µM (inactive) | > 100 µM (inactive) | > 100 µM (inactive) | > 100 µM (inactive) | > 100 µM (inactive) | > 100 µM (inactive) | > 100 µM (inactive) | > 100 µM (inactive) |
